Where “and” joins values, the source holds several entries; their conditions need not be identical. Equal entries are not always repeated. Where two headings read alike, the source gives them in different places. Where a SMILES comes first, the peptide text is derived from it. Side-chain parts run from the residue outwards. [ ]: non-standard residue; d: D form. The star is where a group is joined. Oleoyl = CCCCCCCC/C=C\CCCCCCCC(=O)*; Pentanoyl(4-Me) = CC(C)CCC(=O)*; Octanoyl = CCCCCCCC(=O)*; X1 = O=C(CCCCCCCCCCCO)*; Hexanoyl = CCCCCC(=O)*; Butyryl = CCCC(=O)*
Experiments:
[1] = test system: Pseudomonas syringae pv. syringae EPS94; assay type: cell-based; details: 48 h
Procedure: (§1) The following plant pathogenic bacterial strains were used: Erwinia amylovora PMV6076 (Institut National de la Recherche Agronomique, Angers, France), Pseudomonas syringae pv. syringae EPS94 (Institut de Tecnologia Agroalimentària, Universitat de Girona, Spain) and Xanthomonas axonopodis pv. vesicatoria 2133–2 (Instituto Valenciano de Investigaciones Agrarias, Valencia, Spain). All bacteria were stored in Luria Bertani (LB) broth supplemented with glycerol (20%) and maintained at -80°C. Bacteria were scrapped from LB agar after growing for 24–48 h at 25°C. The cell material was suspended in sterile water to obtain a suspension of 10^8 CFU mL^-1.
(§2) Lyophilized peptides were solubilized in sterile Milli-Q water to a final concentration of 1 mM and filter sterilized through a 0.22-μm pore filter. For minimum inhibitory concentration (MIC) assessment, dilutions of the compounds were made to obtain a stock concentration of […]. For antibacterial activity twenty microlitres of each dilution were mixed in a microtiter plate well with 20 μL of the corresponding suspension of the bacterial indicator, 160 μL of Trypticase Soy Broth (TSB) (BioMèrieux, France) to a total volume of 200 μL. For antifungal activity 20 μL of each stock solution were mixed in a microtiter plate well with 80 μL of the corresponding suspension of the fungal pathogen and 100 μL of double concentrated PDB to a total volume of 200 μL containing 0.003% w/v of choramphenicol.
(§3) Three replicates for each strain, compound and concentration were used. Microbial growth was determined by optical density measurement at 600 nm (Bioscreen C, Labsystem, Helsinki, Finland). For antibacterial activity microplates were incubated at 25°C with 20 sec shaking before hourly absorbance measurement for 48 h. For antifungal activity microplates were incubated at 20°C with 1 min shaking before absorbance measurement that were done every two hours during seven days. The experiment was repeated twice. The MIC was taken as the lowest compound concentration with no growth at the end of the experiment.

[2] = test system: Xanthomonas axonopodis pv. vesicatoria 2133–2; assay type: cell-based; details: TSB, 25°C, 48 h, OD 600 nm; tested at 3.1, 6.2, 12.5, 25, 50 μM; three replicates, experiment repeated twice; MIC = lowest concentration with no growth
Procedure: as §1, §2, §3

[3] = test system: Erwinia amylovora PMV6076; assay: MIC, in vitro growth inhibition; assay type: cell-based; details: TSB, 25°C, 48 h, OD 600 nm; tested at 3.1, 6.2, 12.5, 25, 50 μM; three replicates, experiment repeated twice; MIC = lowest concentration with no growth
Procedure: as §1, §2, §3

[4] = test system: Fusarium oxysporum f. sp. lycopersici FOL 3 race 2; assay: MIC, antifungal growth inhibition; assay type: cell-based
Procedure: Fusarium oxysporum f. sp. lycopersici FOL 3 race 2 (ATCC 201829, American Type Culture Collection) was used as fungal pathogen. The strain was cultured on potato dextrose agar (PDA) plates (Difco) and microconidia were obtained after growth at 25°C. The concentration of conidia was determined using a hemacytometer and adjusted to 10^4 conidia mL^-1.
as §2, §3

[5] = test system: erythrocyte suspensions of horse blood; details: horse erythrocytes 5% vol/vol, TRIS buffer pH 7.2, 1 h at 37°C, absorbance 540 nm, relative to melittin 100 μM, ± confidence interval (α = 0.05); for Hemolysis (%) 150 µM: 150 µM peptide; for Hemolysis (%) 250 µM: 250 µM peptide;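 on all read-outs here: Read-out is hemoglobin release into the supernatant, with a buffer-only blank subtracted as the 0% baseline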
[6] = PDB with 0.003% chloramphenicol, 20°C, seven days, OD 600 nm, tested at 3.1, 6.2, 12.5, 25, 50 μM, three replicates, repeated twice

Compound	MIC Pss [1]	MIC Xav [2]	MIC Ea [3]	MIC Fo [4, 6]	Hemolysis (%) 150 µM [5]	Hemolysis (%) 250 µM [5]	MIC Fo [4]	MIC Pss ([1]; TSB, 25°C, OD 600 nm, tested at 3.1, 6.2, 12.5, 25, 50 μM, three replicates, experiment repeated twice, MIC = lowest concentration with no growth)
CC(C)C[C@@H]1NC(=O)[C@H](CCCCN)NC(=O)[C@H](CCCCN)NC(=O)[C@H](CCC(N)=O)NC(=O)[C@H](CC(C)C)NC(=O)[C@H](CCCCN)NC(=O)[C@H](CCCCN)NC(=O)[C@H](Cc2ccccc2)NC(=O)[C@H](CCCCNC(=O)CCCCCCCCCCCO)NC(=O)[C@H](CCCCN)NC1=O [BPC524, c(KKLKK(CO-C11H22OH)FKKLQ)] (cyclo(FKKLQKKLKK(X1)))	12.5 to 25 µM	6.2 to 12.5 µM	25 to 50 µM	12.5 to 25 µM	100 ± 8%	100 ± 6%	–	–
CCCCCCCC/C=C\CCCCCCCC(=O)NCCCC[C@@H]1NC(=O)[C@H](CCCCN)NC(=O)[C@H](CC(C)C)NC(=O)[C@H](CCCCN)NC(=O)[C@H](CCCCN)NC(=O)[C@H](CCC(N)=O)NC(=O)[C@H](CC(C)C)NC(=O)[C@H](CCCCN)NC(=O)[C@H](CCCCN)NC(=O)[C@H](Cc2ccccc2)NC1=O [BPC622, c(KKLKK(CO-C17H33)FKKLQ)] (cyclo(FKKLQKKLKK(Oleoyl)))	25 to 50 µM	3.1 to 6.2 µM	>50 µM	>50 µM	91 ± 2%	97 ± 3%	–	–
CCCCCC(=O)NCCCC[C@H]1NC(=O)[C@H](CCCCN)NC(=O)[C@H](CC(C)C)NC(=O)[C@H](CCCCN)NC(=O)[C@H](CCCCN)NC(=O)[C@H](CCC(N)=O)NC(=O)[C@H](CC(C)C)NC(=O)[C@H](CCCCN)NC(=O)[C@H](CCCCN)NC(=O)[C@H](Cc2ccccc2)NC1=O [BPC628, c(KKLKk(CO-nC5H11)FKKLQ)] (cyclo(FKKLQKKLK[dK](Hexanoyl)))	12.5 to 25 µM	6.2 to 12.5 µM	25 to 50 µM	6.2 to 12.5 µM	19 ± 2%	34 ± 3%	–	–
CC(C)CCC(=O)NCCCC[C@@H]1NC(=O)[C@H](CCCCN)NC(=O)[C@H](CC(C)C)NC(=O)[C@H](CCCCN)NC(=O)[C@H](CCCCN)NC(=O)[C@H](CCC(N)=O)NC(=O)[C@H](CC(C)C)NC(=O)[C@H](CCCCN)NC(=O)[C@H](CCCCN)NC(=O)[C@H](Cc2c[nH]cn2)NC1=O [BPC638, c(KKLKK(CO-isoC5H11)HKKLQ)] (cyclo(HKKLQKKLKK(Pentanoyl(4-Me))))	6.2 to 12.5 µM	25 to 50 µM	25 to 50 µM	6.2 to 12.5 µM	6 ± 2%	8 ± 5%	–	–
CCCCCC(=O)NCCCC[C@@H]1NC(=O)[C@H](CCCCN)NC(=O)[C@H](CCC(N)=O)NC(=O)[C@H](CC(C)C)NC(=O)[C@H](CCCCN)NC(=O)[C@H](CCCCN)NC(=O)[C@@H](Cc2ccccc2)NC(=O)[C@H](CCCCN)NC(=O)[C@H](CCCCN)NC(=O)[C@H](CC(C)C)NC1=O [BPC680, c(KK(CO-nC5H11)LKKfKKLQ)] (cyclo(KK(Hexanoyl)LKK[dF]KKLQ))	25 to 50 µM	12.5 to 25 µM	25 to 50 µM	3.1 to 6.2 µM	77 ± 2%	81 ± 4%	–	–
CCCCCC(=O)NCCCC[C@H]1NC(=O)[C@H](CCC(N)=O)NC(=O)[C@H](CC(C)C)NC(=O)[C@H](CCCCN)NC(=O)[C@H](CCCCN)NC(=O)[C@H](Cc2ccccc2)NC(=O)[C@H](CCCCN)NC(=O)[C@H](CCCCN)NC(=O)[C@H](CC(C)C)NC(=O)[C@H](CCCCN)NC1=O [BPC684] (cyclo(FKKLQ[dK](Hexanoyl)KLKK))	12.5 to 25 µM	6.2 to 12.5 µM	25 to 50 µM	6.2 to 12.5 µM	8 ± 1%	–	–	–
CCCC(=O)NCCCC[C@@H]1NC(=O)[C@H](CCC(N)=O)NC(=O)[C@H](CC(C)C)NC(=O)[C@H](CCCCN)NC(=O)[C@H](CCCCN)NC(=O)[C@@H](Cc2ccccc2)NC(=O)[C@H](CCCCN)NC(=O)[C@H](CCCCN)NC(=O)[C@H](CC(C)C)NC(=O)[C@H](CCCCN)NC1=O [BPC716, c(K(CO-C3H7)KLKKfKKLQ)] (cyclo(K(Butyryl)KLKK[dF]KKLQ))	12.5 to 25 µM	25 to 50 µM	25 to 50 µM	3.1 to 6.2 µM	2 ± 1%	4 ± 0.5%	–	–
CC(C)CCC(=O)NCCCC[C@@H]1NC(=O)[C@H](CCCCN)NC(=O)[C@H](CC(C)C)NC(=O)[C@H](CCCCN)NC(=O)[C@H](CCCCN)NC(=O)[C@H](CCC(N)=O)NC(=O)[C@H](CC(C)C)NC(=O)[C@H](CCCCN)NC(=O)[C@H](CCCCN)NC(=O)[C@@H](Cc2ccccc2)NC1=O [BPC626, c(KKLKK(CO-isoC5H11)fKKLQ)] (cyclo(KKLKK(Pentanoyl(4-Me))[dF]KKLQ))	12.5 to 25 µM	6.2 to 12.5 µM	25 to 50 µM	6.2 to 12.5 µM	51 ± 7%	54 ± 4%	–	–
CCCCCCCC(=O)NCCCC[C@H]1NC(=O)[C@H](CCCCN)NC(=O)[C@H](CC(C)C)NC(=O)[C@H](CCCCN)NC(=O)[C@H](CCCCN)NC(=O)[C@H](CCC(N)=O)NC(=O)[C@H](CC(C)C)NC(=O)[C@H](CCCCN)NC(=O)[C@H](CCCCN)NC(=O)[C@H](Cc2ccccc2)NC1=O [BPC666, c(KKLKk(CO-C7H15)FKKLQ)] (cyclo(FKKLQKKLK[dK](Octanoyl)))	12.5 to 25 µM	12.5 to 25 µM	25 to 50 µM	6.2 to 12.5 µM	61 ± 2%	73 ± 3%	–	–
CCCCCC(=O)N[C@@H](CCCCN)C(=O)N[C@@H](CC(C)C)C(=O)NCCCC[C@@H]1NC(=O)[C@H](CCCCN)NC(=O)[C@H](CC(C)C)NC(=O)[C@H](CCCCN)NC(=O)[C@H](CCCCN)NC(=O)[C@H](CCC(N)=O)NC(=O)[C@H](CC(C)C)NC(=O)[C@H](CCCCN)NC(=O)[C@H](CCCCN)NC(=O)[C@@H](Cc2ccccc2)NC1=O [BPC674, c(KKLKK(LK-CO-nC5H11)fKKLQ)] (cyclo(KKLKK([Leu-Lys-Hexanoyl])[dF]KKLQ))	6.2 to 12.5 µM	3.1 to 12.5 µM and 6.2 to 12.5 µM	25 to 50 µM	3.1 to 6.2 µM	51 ± 2%	56 ± 2%	3.1 to 6.2 µM	–
CCCCCC(=O)N[C@@H](CCCCN)C(=O)N[C@@H](CC(C)C)C(=O)NCCCC[C@H]1NC(=O)[C@H](CCCCN)NC(=O)[C@H](CC(C)C)NC(=O)[C@H](CCCCN)NC(=O)[C@H](CCCCN)NC(=O)[C@H](CCC(N)=O)NC(=O)[C@H](CC(C)C)NC(=O)[C@H](CCCCN)NC(=O)[C@H](CCCCN)NC(=O)[C@H](Cc2ccccc2)NC1=O [BPC672, c(KKLKk(LK-CO-nC5H11)FKKLQ)] (cyclo(FKKLQKKLK[dK]([Leu-Lys-Hexanoyl])))	6.2 to 12.5 µM	3.1 to 12.5 µM and 6.2 to 12.5 µM	25 to 50 µM	3.1 to 6.2 µM	33 ± 2%	33 ± 2%	3.1 to 6.2 µM	–
c(KKLKK(CO-C6H13)FKKLQ) [BPC592]	–	6.2 to 12.5 µM	25 to 50 µM	12.5 to 25 µM	–	–	–	12.5 to 25 µM
CCCC(=O)NCCCC[C@H]1NC(=O)[C@H](CCCCN)NC(=O)[C@H](CC(C)C)NC(=O)[C@H](CCCCN)NC(=O)[C@H](CCCCN)NC(=O)[C@H](CCC(N)=O)NC(=O)[C@H](CC(C)C)NC(=O)[C@H](CCCCN)NC(=O)[C@H](CCCCN)NC(=O)[C@H](Cc2ccccc2)NC1=O [BPC702, c(KKLKk(CO-C3H7)FKKLQ)] (cyclo(FKKLQKKLK[dK](Butyryl)))	–	–	25 to 50 µM	< 12.5 µM and 3.1 to 6.2 µM	1 ± 0.1%	–	3.1 to 6.2 µM	–

Source: PMC4805166, “Synthetic Cyclolipopeptides Selective against Microbial, Plant and Animal Cell Targets by Incorporation of D-Amino Acids or Histidine” (PLoS ONE, 2016)
